Data as given in US20170008888A1 (KYORIN PHARMACEUTICAL CO., LTD., priority 2014, published 2017).
Where two headings read alike, the source gives them in different places.

How the values were obtained:
Assay type in all cases: binding
AurA = target: T1, AurA (Homo sapiens, UniProt O14965); assay: Probe-based (AX9989) kinase profiling in Jurkat lysate: AurA
T1 construct: screened for activity against several kinases in Jurkat cells; endogenous in cells; host or cells: Jurkat cell lysate
T1 sequence (O14965 1-403): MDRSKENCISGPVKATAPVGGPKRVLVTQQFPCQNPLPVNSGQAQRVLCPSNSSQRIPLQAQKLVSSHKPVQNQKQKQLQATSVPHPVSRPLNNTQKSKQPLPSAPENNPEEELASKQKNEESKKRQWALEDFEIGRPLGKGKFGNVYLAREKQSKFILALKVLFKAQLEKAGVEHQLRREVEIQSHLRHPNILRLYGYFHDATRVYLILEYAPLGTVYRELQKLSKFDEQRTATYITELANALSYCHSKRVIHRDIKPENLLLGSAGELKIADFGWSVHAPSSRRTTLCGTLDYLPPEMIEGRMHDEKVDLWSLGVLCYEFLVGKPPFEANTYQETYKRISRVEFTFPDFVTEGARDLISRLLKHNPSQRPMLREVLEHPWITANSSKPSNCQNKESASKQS
Outline: (§1)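 Read-out: LC/MS intensity of desthiobiotinylated kinase active-site peptides, percent inhibition normalized to no-compound lysate. Jurkat lysate with 20 mM MnCl2 received compound for 15 min at room temperature, then 5 μM AX9989 probe; duplicates.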

ABL or ARG = assay: Probe-based (AX9989) kinase profiling in Jurkat lysate: ABL or ARG
Outline: as §1

AMPKa1 or AMPKa2 = assay: Probe-based (AX9989) kinase profiling in Jurkat lysate: AMPKa1 or AMPKa2
Outline: as §1

JAK1 = target: T2, JAK1 (Homo sapiens, UniProt P23458); assay: Probe-based (AX9989) kinase profiling in Jurkat lysate: JAK1
T2 construct: screened for activity against several kinases in Jurkat cells; endogenous in cells; host or cells: Jurkat cell lysate
T2 sequence (P23458 whole entry): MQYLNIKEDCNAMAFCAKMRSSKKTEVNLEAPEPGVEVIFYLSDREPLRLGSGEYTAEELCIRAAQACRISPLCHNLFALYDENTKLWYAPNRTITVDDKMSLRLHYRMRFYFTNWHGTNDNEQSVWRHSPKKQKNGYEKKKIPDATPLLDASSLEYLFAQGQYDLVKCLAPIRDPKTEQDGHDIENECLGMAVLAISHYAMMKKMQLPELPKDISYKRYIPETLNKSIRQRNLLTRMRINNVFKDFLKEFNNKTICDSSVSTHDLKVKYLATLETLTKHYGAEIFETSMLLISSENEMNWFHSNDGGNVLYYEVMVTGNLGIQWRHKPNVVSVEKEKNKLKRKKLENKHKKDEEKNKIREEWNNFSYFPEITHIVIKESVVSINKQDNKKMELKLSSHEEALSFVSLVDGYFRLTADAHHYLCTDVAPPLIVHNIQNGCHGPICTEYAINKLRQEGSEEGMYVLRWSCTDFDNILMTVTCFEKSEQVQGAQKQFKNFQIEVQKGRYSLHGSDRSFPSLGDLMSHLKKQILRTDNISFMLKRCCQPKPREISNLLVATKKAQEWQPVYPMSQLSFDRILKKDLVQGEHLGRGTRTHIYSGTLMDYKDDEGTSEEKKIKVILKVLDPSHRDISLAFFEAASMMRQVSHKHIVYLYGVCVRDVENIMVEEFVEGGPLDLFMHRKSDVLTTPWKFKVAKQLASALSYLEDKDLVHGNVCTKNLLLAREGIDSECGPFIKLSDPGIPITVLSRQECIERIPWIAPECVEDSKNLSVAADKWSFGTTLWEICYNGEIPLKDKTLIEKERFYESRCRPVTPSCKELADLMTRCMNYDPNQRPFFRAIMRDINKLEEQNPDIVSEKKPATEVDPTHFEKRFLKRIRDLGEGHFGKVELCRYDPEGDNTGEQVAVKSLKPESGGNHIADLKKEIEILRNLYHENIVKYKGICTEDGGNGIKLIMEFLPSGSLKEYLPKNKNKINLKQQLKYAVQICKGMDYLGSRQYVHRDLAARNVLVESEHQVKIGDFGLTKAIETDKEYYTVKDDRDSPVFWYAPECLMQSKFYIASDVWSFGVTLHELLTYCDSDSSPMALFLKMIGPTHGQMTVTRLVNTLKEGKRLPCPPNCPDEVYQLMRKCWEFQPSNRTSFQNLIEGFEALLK
Outline: as §1

ERK5 = target: T3, ERK5 (Homo sapiens, UniProt Q13164); assay: Probe-based (AX9989 acyl phosphate ATP probe) kinase profiling in Jurkat lysate: ERK5; conditions: for IC50: Jurkat lysate
T3 construct: screened for activity against several kinases in Jurkat cells; endogenous in cells; host or cells: Jurkat cell lysate
T3 sequence (Q13164 whole entry): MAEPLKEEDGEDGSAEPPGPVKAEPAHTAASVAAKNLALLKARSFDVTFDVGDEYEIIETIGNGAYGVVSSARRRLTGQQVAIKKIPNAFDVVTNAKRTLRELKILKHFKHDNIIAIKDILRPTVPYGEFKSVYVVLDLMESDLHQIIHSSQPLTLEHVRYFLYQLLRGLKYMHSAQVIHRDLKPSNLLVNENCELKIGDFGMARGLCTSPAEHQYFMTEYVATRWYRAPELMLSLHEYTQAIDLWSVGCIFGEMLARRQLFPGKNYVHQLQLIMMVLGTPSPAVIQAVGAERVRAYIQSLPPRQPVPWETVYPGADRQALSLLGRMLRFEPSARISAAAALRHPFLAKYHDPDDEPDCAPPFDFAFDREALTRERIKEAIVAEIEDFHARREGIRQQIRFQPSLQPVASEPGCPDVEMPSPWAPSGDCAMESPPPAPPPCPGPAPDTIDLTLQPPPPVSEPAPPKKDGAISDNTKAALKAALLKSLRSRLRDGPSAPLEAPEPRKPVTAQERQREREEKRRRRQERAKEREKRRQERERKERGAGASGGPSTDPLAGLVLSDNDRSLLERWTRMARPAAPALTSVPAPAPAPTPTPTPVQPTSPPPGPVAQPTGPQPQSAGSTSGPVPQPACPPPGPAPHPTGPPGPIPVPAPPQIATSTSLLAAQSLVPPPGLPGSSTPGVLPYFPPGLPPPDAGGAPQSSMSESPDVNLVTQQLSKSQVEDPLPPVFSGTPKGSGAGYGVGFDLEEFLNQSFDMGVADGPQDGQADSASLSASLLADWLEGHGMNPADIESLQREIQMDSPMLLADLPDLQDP
Outline: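 ERK5 IC50 values came from percent inhibition at the screening concentration, measured as loss of LC/MS signal of probe-labelled active-site peptides. Compound was added for 15 min at room temperature to Jurkat lysate (5 mg/ml, 20 mM MnCl2) before labelling with AX9989 ATP acyl phosphate probe at 5 μM.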

TAO2 = target: T4, TAO2 (Homo sapiens, UniProt Q9UL54); assay: Probe-based (AX9989) kinase profiling in Jurkat lysate: TAO2
T4 construct: screened for activity against several kinases in Jurkat cells; endogenous in cells; host or cells: Jurkat cell lysate
T4 sequence (Q9UL54 1-1235): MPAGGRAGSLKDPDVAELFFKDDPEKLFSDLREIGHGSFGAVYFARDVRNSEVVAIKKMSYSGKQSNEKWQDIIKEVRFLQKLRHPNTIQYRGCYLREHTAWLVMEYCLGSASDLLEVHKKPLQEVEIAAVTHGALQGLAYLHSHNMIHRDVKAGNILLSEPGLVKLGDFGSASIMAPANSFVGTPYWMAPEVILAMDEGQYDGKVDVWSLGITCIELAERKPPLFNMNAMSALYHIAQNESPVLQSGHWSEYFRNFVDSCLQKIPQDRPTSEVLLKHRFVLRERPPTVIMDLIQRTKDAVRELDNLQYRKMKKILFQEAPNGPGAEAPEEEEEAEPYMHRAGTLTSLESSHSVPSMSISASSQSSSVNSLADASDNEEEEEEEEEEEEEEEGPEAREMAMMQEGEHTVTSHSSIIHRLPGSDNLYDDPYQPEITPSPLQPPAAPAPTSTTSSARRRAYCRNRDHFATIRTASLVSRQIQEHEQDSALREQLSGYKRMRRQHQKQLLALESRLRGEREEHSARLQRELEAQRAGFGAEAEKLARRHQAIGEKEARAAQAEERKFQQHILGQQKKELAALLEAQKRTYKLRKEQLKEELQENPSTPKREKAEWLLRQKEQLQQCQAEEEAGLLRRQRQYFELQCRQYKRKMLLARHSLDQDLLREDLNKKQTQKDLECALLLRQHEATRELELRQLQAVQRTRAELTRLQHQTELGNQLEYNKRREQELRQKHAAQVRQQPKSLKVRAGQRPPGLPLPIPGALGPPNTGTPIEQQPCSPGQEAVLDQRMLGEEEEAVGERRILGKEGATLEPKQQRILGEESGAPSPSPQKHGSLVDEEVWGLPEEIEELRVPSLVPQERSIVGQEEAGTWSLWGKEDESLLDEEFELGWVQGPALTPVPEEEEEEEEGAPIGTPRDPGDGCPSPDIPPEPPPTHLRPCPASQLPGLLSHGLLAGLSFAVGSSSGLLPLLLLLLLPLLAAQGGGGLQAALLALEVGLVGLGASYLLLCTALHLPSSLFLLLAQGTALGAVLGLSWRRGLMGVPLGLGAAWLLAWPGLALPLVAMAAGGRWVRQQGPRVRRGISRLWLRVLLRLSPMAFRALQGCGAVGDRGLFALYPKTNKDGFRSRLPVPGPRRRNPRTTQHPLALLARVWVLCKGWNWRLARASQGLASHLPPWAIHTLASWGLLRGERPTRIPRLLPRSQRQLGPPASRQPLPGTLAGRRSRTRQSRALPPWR
Outline: as §1

[1] = calculated from percent inhibition and screening concentration, AX9989 probe
[2] = screening concentration 1 μM, read-out: AurA Inhibition % at indicated screening concentration
[3] = screening concentration 1 μM, read-out: JAK1 Inhibition % at indicated screening concentration
[4] = screening concentration 1 μM, read-out: ERK5 Inhibition % at indicated screening concentration
[5] = screening concentration 1 μM, read-out: TAO2 Inhibition % at indicated screening concentration
[6] = screening concentration 1.0 μM, read-out: Kinase inhibition % at indicated screening concentration: AurA
[7] = screening concentration 1.0 μM, read-out: Kinase inhibition % at indicated screening concentration: JAK1
[8] = calculated from percent inhibition of AX9989 labeling and the screening concentration
[9] = screening concentration 1.0 μM, read-out: Kinase inhibition % at indicated screening concentration: ERK5
[10] = screening concentration 1.0 μM, read-out: Kinase inhibition % at indicated screening concentration: TAO2

| SMILES | IC50 (ERK5; [1]) [nM] | inhibition at 1 µM (AurA; [2]) [%] | ABL or ARG Inhibition % at indicated screening concentration (ABL or ARG; screening concentration 1 μM) | AMPKa1 or AMPKa2 Inhibition % at indicated screening concentration (AMPKa1 or AMPKa2; screening concentration 1 μM) | inhibition at 1 µM (JAK1; [3]) [%] | inhibition at 1 µM (ERK5; [4]) [%] | inhibition at 1 µM (TAO2; [5]) [%] | inhibition at 1 µM (AurA; [6]) [%] | Kinase inhibition % at indicated screening concentration: ABL or ARG (ABL or ARG; screening concentration 1.0 μM) | Kinase inhibition % at indicated screening concentration: AMPKa1 or AMPKa2 (AMPKa1 or AMPKa2; screening concentration 1.0 μM) | inhibition at 1 µM (JAK1; [7]) [%] | IC50 (ERK5; [8]) [nM] | inhibition at 1 µM (ERK5; [9]) [%] | inhibition at 1 µM (TAO2; [10]) [%] | other results |
| --- | --- | --- | --- | --- | --- | --- | --- | --- | --- | --- | --- | --- | --- | --- | --- |
| CCOc1cc(C(=O)N2CCN(C3CCN(C)CC3)CC2)ccc1Nc1cc2c(cn1)N(C)C(=O)c1ccccc1O2 [Compound T98] | 101 to 500 | – | – | – | – | – | – | – | – | – | – | – | – | – | inhibition at 10 µM (AurA; screening concentration 10 μM, read-out: AurA Inhibition % at indicated screening concentration): ≤ 35%; ABL or ARG Inhibition % at indicated screening concentration (ABL or ARG; screening concentration 10 μM): E (E is ≦35%); AMPKa1 or AMPKa2 Inhibition % at indicated screening concentration (AMPKa1 or AMPKa2; screening concentration 10 μM): E (E is ≦35%); inhibition at 10 µM (JAK1; screening concentration 10 μM, read-out: JAK1 Inhibition % at indicated screening concentration): ≤ 35%; inhibition at 10 µM (ERK5; screening concentration 10 μM, read-out: ERK5 Inhibition % at indicated screening concentration): > 90%; inhibition at 10 µM (TAO2; screening concentration 10 μM, read-out: TAO2 Inhibition % at indicated screening concentration): ≤ 35% |
| CC(C)Oc1cc(C(=O)N2CCN(C3CCN(C)CC3)CC2)ccc1Nc1cc2c(cn1)N(C)C(=O)c1ccccc1N2C [Compound T49] | 50 to 100 | ≤ 35 | E (E is ≦35%) | E (E is ≦35%) | ≤ 35 | > 90 | ≤ 35 | – | – | – | – | – | – | – | – |
| CCOc1cc(C(=O)N2CCN(CCOCCO)CC2)ccc1Nc1cc2c(cn1)N(C)C(=O)c1ccccc1N2C [Compound 6] | – | – | – | – | – | – | – | ≤ 35 | E (E is ≦35%) | E (E is ≦35%) | ≤ 35 | ≤ 50 | > 90 | ≤ 35 | – |
| CCOc1cc(C(=O)N2CC[C@@H](N(CC)CC)C2)ccc1Nc1cc2c(cn1)N(C)C(=O)c1occc1N2C [Compound 67] | – | – | – | – | – | – | – | – | – | – | – | ≤ 50 | – | – | inhibition at 0.1 µM (AurA; screening concentration 0.1 μM, read-out: Kinase inhibition % at indicated screening concentration: AurA): ≤ 35%; Kinase inhibition % at indicated screening concentration: ABL or ARG (ABL or ARG; screening concentration 0.1 μM): E (E is ≦35%); Kinase inhibition % at indicated screening concentration: AMPKa1 or AMPKa2 (AMPKa1 or AMPKa2; screening concentration 0.1 μM): E (E is ≦35%); inhibition at 0.1 µM (JAK1; screening concentration 0.1 μM, read-out: Kinase inhibition % at indicated screening concentration: JAK1): ≤ 35%; inhibition at 0.1 µM (ERK5; screening concentration 0.1 μM, read-out: Kinase inhibition % at indicated screening concentration: ERK5): > 90%; inhibition at 0.1 µM (TAO2; screening concentration 0.1 μM, read-out: Kinase inhibition % at indicated screening concentration: TAO2): ≤ 35% |
| CCOc1cc(C(=O)N(CC)CCN(CC)CC)ccc1Nc1cc2c(cn1)N(C)C(=O)c1ccccc1N2C [Compound 122] | – | – | – | – | – | – | – | ≤ 35 | E (E is ≦35%) | E (E is ≦35%) | ≤ 35 | ≤ 50 | > 90 | ≤ 35 | – |
| CN1CCC(N2CCN(C(=O)c3ccc(Nc4cc5c(cn4)N(C)C(=O)c4ccccc4N5C)c(F)c3)CC2)CC1 [Compound T70] | ≤ 50 | ≤ 35 | E (E is ≦35%) | E (E is ≦35%) | ≤ 35 | > 90 | ≤ 35 | – | – | – | – | – | – | – | – |
| CCOc1cc(C(=O)N2CC[C@@H](N3CCN(C)CC3)C2)ccc1Nc1cc2c(cn1)N(C)C(=O)c1ccccc1N2C [Compound T20] | ≤ 50 | ≤ 35 | E (E is ≦35%) | E (E is ≦35%) | ≤ 35 | > 90 | ≤ 35 | – | – | – | – | – | – | – | – |
| CN1CCN(C2CCN(C(=O)c3ccc(Nc4cc5c(cn4)N(C)C(=O)c4ccccc4N5C)c(OCCF)c3)CC2)CC1 [Compound T34] | ≤ 50 | ≤ 35 | E (E is ≦35%) | E (E is ≦35%) | ≤ 35 | > 90 | ≤ 35 | – | – | – | – | – | – | – | – |
| CCOc1cc(C(=O)N[C@H]2CCCOC2)ccc1Nc1cc2c(cn1)N(C)C(=O)c1ccccc1N2C [Compound 100] | – | – | – | – | – | – | – | ≤ 35 | E (E is ≦35%) | E (E is ≦35%) | ≤ 35 | > 500 | 50 to 75 | ≤ 35 | – |
| CCOc1cc(C(=O)N2CC[C@@H](NCCF)C2)ccc1Nc1cc2c(cn1)N(C)C(=O)c1ccccc1N2C [Compound T9] | ≤ 50 | ≤ 35 | E (E is ≦35%) | E (E is ≦35%) | ≤ 35 | > 90 | ≤ 35 | – | – | – | – | – | – | – | – |
